Data from ChEMBL document CHEMBL4265880, “Discovery of 3-Cyano- N-(3-(1-isobutyrylpiperidin-4-yl)-1-methyl-4-(trifluoromethyl)-1 H-pyrrolo[2,3- b]pyridin-5-yl)benzamide: A Potent, Selective, and Orally Bioavailable Retinoic Acid Receptor-Related Orphan Receptor C2 Inverse Agonist” (J Med Chem, 2018).
Converted amounts (≈) assume the structure as drawn.

What was measured:
[1] = Lipophilicity, log D of the compound at pH 7.4 by RP-HPLC analysis; format: physicochemical; settings: buffer
[2] = Volume of distribution at steady state in Wistar Han rat at 1 mg/kg, iv or 3 mg/kg, po via gavage by LC-MS/MS analysis; format: ADME, organism-based; settings: in vivo, read-out: Vdss
[3] = Volume of distribution at steady state in Beagle dog at 1 mg/kg, iv or 3 mg/kg, po via gavage by LC-MS/MS analysis; format: ADME, organism-based, Canis lupus familiaris; settings: in vivo, read-out: Vdss
[4] = Volume of distribution at steady state in Balb/c mouse at 1 mg/kg, iv or 30 mg/kg, po via gavage by LC-MS/MS analysis; format: ADME, organism-based; settings: in vivo, read-out: Vdss
[5] = Oral bioavailability in Wistar Han rat at 3 mg/kg administered via spray-dried dispersion by LC-MS/MS analysis; format: ADME, organism-based; settings: in vivo
[6] = Oral bioavailability in Beagle dog at 3 mg/kg administered via spray-dried dispersion measured over 24 hrs by LC-MS/MS analysis; format: ADME, organism-based, Canis lupus familiaris; settings: in vivo
[7] = Oral bioavailability in Balb/c mouse at 30 mg/kg administered via spray-dried dispersion by LC-MS/MS analysis; format: ADME, organism-based; settings: in vivo
[8] = Oral bioavailability in Wistar Han rat at 3 mg/kg administered as crystalline solid by LC-MS/MS analysis; format: ADME, organism-based; settings: in vivo
[9] = Apparent permeability in RRCK cells; format: ADME, cell-based, Canis lupus familiaris, MDCKII-LE; settings: dog, MDCK
[10] = Thermodynamic solubility of the compound at pH 6.5; format: physicochemical; settings: buffer, read-out: Therm_solubility

logD [1]	SMILES	further results
2.6	CC(C)C(=O)N1CCC(c2cn(C)c3ncc(NC(=O)c4cccc(C#N)c4)c(C(C)C)c23)CC1	
1.6	CC(=O)N1CCC(c2cn(C)c3ncc(NC(=O)c4cccc(C#N)c4)c(C)c23)CC1	
3.7	CC(C)C(=O)N1CCC(c2cn(C)c3ncc(NC(=O)c4cccc(C#N)c4)c(C(F)(F)F)c23)CC1	Vd [2]: 1.4 L/kg; Vd [3]: 1.5 L/kg; Vd [4]: 0.8 L/kg; bioavailability [5]: 83%; bioavailability [6]: 73%; bioavailability [7]: 30%; bioavailability [8]: 21%; Papp [9]: 13.2 ×10⁻⁶ cm/s; solubility thermodynamic [10]: 1 µM (≈ 0.498 µg/mL)
1.6	Cc1c(NC(=O)c2cccc(C#N)c2)cnc2c1c(C1CCN(C(=O)C3CCOC3)CC1)cn2C (centres undefined)	
2.6	Cc1c(NC(=O)c2cccc(C#N)c2)cnc2c1c(C1CCN(C(=O)C3CCC3)CC1)cn2C	
3.8	Cn1cc(C2CCN(C(=O)C3CCCC3)CC2)c2cc(NC(=O)c3cccc(C#N)c3)cnc21	
3.7	Cn1cc(C2CCN(C(=O)C3CCCC3)CC2)c2cc(NC(=O)c3cc(C#N)ccn3)cnc21	
3.6	Cc1c(NC(=O)c2ccc(Cl)c(C#N)c2)cnc2c1c(C1CCN(C(=O)C(C)C)CC1)cn2C	
3.9	Cc1c(NC(=O)c2cccc(C#N)c2)cnc2c1c(C1CCN(C(=O)C3CCCCC3)CC1)cn2C	
2.4	Cc1c(NC(=O)c2cccc(C#N)c2)cnc2c1c(C1CCN(C(=O)CC3CC3)CC1)cn2C	
2	CCC(=O)N1CCC(c2cn(C)c3ncc(NC(=O)c4cccc(C#N)c4)c(C)c23)CC1	
2.3	Cc1c(NC(=O)c2ccc(F)c(C#N)c2)cnc2c1c(C1CCN(C(=O)C(C)C)CC1)cn2C	
4.2	Cn1cc(C2CCN(C(=O)C3CCCC3)CC2)c2nc(NC(=O)c3cc(C#N)ccn3)ccc21	
2	Cc1noc(C)c1C(=O)N1CCC(c2cn(C)c3ncc(NC(=O)c4cccc(C#N)c4)c(C)c23)CC1	
4.3	Cn1cc(C2CCN(C(=O)C3CCCC3)CC2)c2cc(NC(=O)c3cc(C#N)ccn3)ccc21	
2.9	Cc1c(NC(=O)c2cccc(C#N)c2)cnc2c1c(C1CCN(C(=O)C3CCCC3)CC1)cn2C	
2.4	COc1ccc(C(=O)Nc2cnc3c(c(C4CCN(C(=O)C(C)C)CC4)cn3C)c2C)cc1C#N	
2	COc1c(NC(=O)c2cccc(C#N)c2)cnc2c1c(C1CCN(C(=O)C(C)C)CC1)cn2C	
4	Cc1c(NC(=O)c2cccc(C#N)c2)ccc2c1c(C1CCN(C(=O)C3CCCC3)CC1)cn2C	
3.1	Cc1cccc(F)c1C(=O)N1CCC(c2cn(C)c3ncc(NC(=O)c4cccc(C#N)c4)c(C)c23)CC1	
2.3	Cc1ccc(C(=O)Nc2cnc3c(c(C4CCN(C(=O)C(C)C)CC4)cn3C)c2C)cc1C#N	
4.4	Cn1cc(C2CCN(C(=O)C3CCCC3)CC2)c2cc(NC(=O)c3cccc(C#N)c3)ccc21	
2.5	Cc1c(NC(=O)c2cccc(C#N)c2)cnc2c1c(C1CCN(C(=O)CC(C)C)CC1)cn2C	
2.3	Cc1c(NC(=O)c2cccc(C#N)c2)cnc2c1c(C1CCN(C(=O)C3CC3)CC1)cn2C	
2	Cc1c(NC(=O)c2cccc(C#N)c2)cnc2c1c(C1CCN(C(=O)C(C)C)CC1)cn2C	
